This passage reports IC50 results from PMC3929971 (Chemistry (Weinheim an der Bergstrasse, Germany), 2013).

The experiment concerns the target T1, Mtb MraY (phospho-MurNAc-pentapeptide translocase, translocase I) (Mycobacterium tuberculosis, UniProt P9WMW7).
T1 sequence (P9WMW7 1-359): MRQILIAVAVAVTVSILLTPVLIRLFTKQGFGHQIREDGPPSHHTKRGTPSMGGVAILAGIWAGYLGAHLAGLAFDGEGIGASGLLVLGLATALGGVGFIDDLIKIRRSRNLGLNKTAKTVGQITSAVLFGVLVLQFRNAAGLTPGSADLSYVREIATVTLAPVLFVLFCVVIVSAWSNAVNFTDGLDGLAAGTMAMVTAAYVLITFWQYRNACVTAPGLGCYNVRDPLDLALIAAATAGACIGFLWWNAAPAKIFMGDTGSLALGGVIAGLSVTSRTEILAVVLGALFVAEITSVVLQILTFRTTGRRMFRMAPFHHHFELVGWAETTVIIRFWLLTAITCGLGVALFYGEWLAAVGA
In words: MraY enzyme inhibition. In kind it is biochemical.

In general, IC50 refers to the concentration that gives 50% inhibition. Read a low IC50 as inhibition by little substance.

In turn, `CO[C@H]1[C@@H](O)[C@H](n2ccc(=O)[nH]c2=O)O[C@@H]1[C@@H](O[C@H]1OC(C(=O)N[C@H]2CCCCNC2=O)=C[C@H](O)[C@@H]1O)C(N)=O` [compound 1, Capuramycin] yielded an IC50 of 18 nM.
